Data: article PMC9146984, “A Novel Proline-Rich Cathelicidin from the Alpaca Vicugna pacos with Potency to Combat Antibiotic-Resistant Bacteria: Mechanism of Action and the Functional Role of the C-Terminal Region” (Membranes, 2022)
Converted amounts (≈) assume the structure as drawn. Read-outs that look alike come from different tables or passages of the source. Where a SMILES comes first, the peptide text is derived from it.

How the values were obtained:
E. coli MDR CI 1057 = tested on: E. coli MDR CI 1057
Experimental: (§1) Bacterial test cultures were grown in the Mueller-Hinton broth (MH; Sigma, St. Louis, MO, USA) at 37 °C to mid-log phase and then diluted with the 2× MH medium supplemented with 1.8% NaCl or without salt so that to reach a final cell concentration of 10^6 CFU/mL. 50 µL of the obtained bacterial suspension were added to aliquots of 50 µL of the peptide solutions serially diluted with sterilized 0.1% bovine serum albumin (BSA) in 96-well flat-bottom polystyrene microplates (Eppendorf #0030730011, Hamburg, Germany). […] To verify MIC values, the respiratory activity of the bacteria was determined. Briefly, 20 µL of 0.1 mg/mL resazurin (a redox indicator; Sigma, St. Louis, MO, USA) was added to the wells after 24 h of incubation, and the plate was incubated for an additional two hours. The reduction of resazurin to resorufin was measured. […] The results were expressed as the median values determined based on at least three independent experiments performed in triplicate.
(§2) Resistance induction experiments were performed using the previously described method. Briefly, on day one, the overnight culture of wild-type bacteria was diluted with the 2× MH broth supplemented with 1.8% NaCl to reach a final cell concentration of 10^6 CFU/mL. 50 µL of the obtained bacterial suspension were added to aliquots of 50 µL of the peptide solutions serially diluted with the sterilized 0.1% BSA in 96-well flat-bottom polystyrene microplates. After incubation for 20 ± 2 h at 37 °C and 950 rpm, MICs were determined as described above. For each subsequent daily transfer, 2–4 μL of the inoculum taken from the first well containing a sub-inhibitory drug concentration were diluted with 2 mL of the fresh 2× MH broth supplemented with 1.8% NaCl. […] 14 repeated passages in the presence of antimicrobial agents were made for each bacterial strain during the experiment. Bacteria that grew at the highest concentration of AMPs on the final day were passaged a further 3 times on drug-free agar plates before determining the final MIC value.

[1] = tested on: VicBac[1–22]-resistant E. coli MDR 1057 strain; conditions: Mueller-Hinton broth supplemented with 0.9% NaCl; strain selected 14 days with VicBac[1-22]; cross-resistance
Experimental: as §1, §2

[2] = tested on: E. coli BL21 (DE3) Star cell extract, coupled transcription/translation of EGFP; assay: In vitro transcription/translation inhibition assay (cell-free EGFP synthesis); format: biochemical, Escherichia coli; conditions: EGFP fluorescence, 2 h, 30 °C; at least two independent experiments in triplicate; read-out: IC50, inhibition of in vitro protein synthesis in the E. coli cell-free system
Experimental: To investigate the effect of cathelicidins on the coupled transcription/translation process, the peptides were added to a cell-free protein synthesis (CFPS) reaction mix with a plasmid encoding enhanced green fluorescent protein (EGFP) variant (F64L, S65T, Q80R, F99S, M153T, and V163A) under control of the T7 promoter as described previously with some modifications. Briefly, the peptides were dissolved in 0.1% BSA in water. Bac7[1–22] was used as a positive control inhibitor. The fluorescence of the sample without inhibitor was set as the 100% value. The reaction proceeded for 2 h in 96-well v-bottom black polystyrene microplates in a plate shaker (30 °C, 1000 rpm). The fluorescence of the synthesized EGFP was measured with the microplate reader AF2200 (λExc = 488 nm, λEm = 510 nm; Eppendorf, Hamburg, Germany). The experimental data were obtained from at least two independent experiments performed in triplicate. Non-linear regression curves were generated using GraphPad Prism v.8.0.1 (GraphPad Software Inc., San Diego, CA, USA).

E. coli CI 214 = assay: Antimicrobial assay (MIC); format: cell-based, Escherichia coli; conditions: Mueller-Hinton broth supplemented with 0.9% NaCl
Experimental: (§3) The reduction of resazurin to resorufin was measured.

E. coli ML-35p = assay: Antimicrobial assay (MIC); format: cell-based, Escherichia coli; conditions: Mueller-Hinton broth supplemented with 0.9% NaCl
Experimental: as §3

Cytotoxicity (MTT assay) = format: cell-based, human; conditions: human
Experimental: Hemolytic activity of the peptides was tested against the fresh suspension of human red blood cells (hRBC) using the hemoglobin release assay as described previously. Two experiments were performed with the hRBC from blood samples of independent donors. The quantitative data were represented as average means with standard deviations. The colorimetric 3-(4,5-dimethylthiazol-2-yl)-2,5-diphenyltetrazolium bromide (MTT) dye reduction assay was used to determine the cytotoxicity of the peptides against transformed human embryonic kidney cells (HEK293T). 10^4 cells per well in Dulbecco’s modified Eagle’s medium (DMEM/F12) supplemented with 10% fetal bovine serum (FBS; Invitrogen, Waltham, MA, USA) were placed into 96-well plates and then cultured in the CO2-incubator (5% CO2, 37 °C). After the media were removed, the peptides were dissolved in 100 µL of the same medium and added to cell cultures at different final concentrations. 20 h later, 20 μL of MTT (5 mg/mL; Sigma, St. Louis, MO, USA) was added to each well, and the plates were incubated for 4 h at 37 °C. Then, the media were discarded and a 100 µL dimethyl sulfoxide-isopropanol mixture at a ratio of 1:1 (v/v) was added to each well to dissolve the crystallized formazan. The absorbance at 570 nm was measured by a microplate reader AF2200 (Eppendorf, Hamburg, Germany). The optical density in the wells containing cells cultured without the peptides was assumed to represent 100% cell viability. Two independent experiments were performed for each peptide.

P. aeruginosa ATCC 27853 = assay: Antimicrobial assay (MIC); format: cell-based, Pseudomonas aeruginosa; conditions: Mueller-Hinton broth supplemented with 0.9% NaCl
Experimental: as §3

P. aeruginosa PAO1 = assay: Antimicrobial assay (MIC); format: cell-based, Pseudomonas aeruginosa; conditions: Mueller-Hinton broth supplemented with 0.9% NaCl
Experimental: as §3

B. subtilis B-886 = assay: Antimicrobial assay (MIC); format: cell-based, Bacillus subtilis; conditions: Mueller-Hinton broth supplemented with 0.9% NaCl
Experimental: as §3

E. coli BW25113 ΔompF = format: cell-based, Escherichia coli; conditions: Mueller–Hinton broth, 24 h, 37 °C, median
Experimental: as §3

E. coli BW25113 ΔmdtM = format: cell-based, Escherichia coli; conditions: Mueller–Hinton broth, 24 h, 37 °C, median
Experimental: as §3

E. coli BW25113 ΔsbmA = format: cell-based, Escherichia coli; conditions: for Minimum inhibitory concentration, E. coli strain ΔsbmA: Mueller–Hinton broth, 24 h, 37 °C, median
Experimental: as §3

E. coli BW25113 = format: cell-based, Escherichia coli; conditions: BW25113, 24 h
Experimental: as §3

[3] = tested on: panel of reference bacterial pathogens and antibiotic-resistant clinical isolates; conditions: Mueller–Hinton broth supplemented with 0.9% NaCl

In the case of CC[C@H](C)[C@H](NC(=O)[C@H](CCCNC(=N)N)NC(=O)[C@@H](N)CCCNC(=N)N)C(=O)N[C@@H](CCCNC(=N)N)C(=O)N[C@@H](CCCNC(=N)N)C(=O)N1CCC[C@H]1C(=O)N[C@@H](CCCNC(=N)N)C(=O)N[C@@H](CC(C)C)C(=O)N1CCC[C@H]1C(=O)N[C@@H](CCCNC(=N)N)C(=O)N1CCC[C@H]1C(=O)N[C@@H](CCCNC(=N)N)C(=O)N[C@H](C(=O)N1CCC[C@H]1C(=O)N[C@@H](CCCNC(=N)N)C(=O)N1CCC[C@H]1C(=O)N[C@@H](CCCNC(=N)N)C(=O)N[C@H](C(=O)N1CCC[C@H]1C(=O)N1CCC[C@H]1C(=O)N[C@@H](CCCNC(=N)N)C(=O)N[C@H](C(=O)N1CCC[C@H]1C(=O)N[C@@H](CCCNC(=N)N)C(=O)N1CCC[C@H]1C(=O)N[C@H](C(=O)N[C@@H](CC(C)C)C(=O)N1CCC[C@H]1C(=O)N1CCC[C@H]1C(=O)N1CCC[C@H]1C(=O)N[C@@H](CCCNC(=N)N)C(=O)N[C@H](C(=O)N1CCC[C@H]1C(=O)N[C@@H](Cc1ccccc1)C(=O)N1CCC[C@H]1C(=O)N[C@@H](CCCNC(=N)N)C(=O)N[C@@H](Cc1ccccc1)C(=O)N1CCC[C@H]1C(=O)N[C@@H](CCCNC(=N)N)C(N)=O)C(C)C)C(C)C)[C@@H](C)CC)[C@@H](C)CC)C(C)C [VicBac[1-39]] (H-RRIRRPRLPRPRVPRPRIPPRIPRPVLPPPRVPFPRFPR-NH2; N-terminus assumed), the “MIC, E. coli MDR CI 1057” value (E. coli MDR CI 1057; Mueller-Hinton broth supplemented with 0.9% NaCl (Figure 3A)) is reported as 1 µM (≈ 4.82 µg/mL), the “Minimum inhibitory concentration E.coli MDR 1057 14 days w/o AMP” value (E. coli MDR CI 1057; Mueller-Hinton broth supplemented with 0.9% NaCl, after 14 passages without antimicrobial agents) is reported as 1 µM (≈ 4.82 µg/mL) and the “Minimum inhibitory concentration E.coli MDR 1057 0 days” value (E. coli MDR CI 1057; Mueller-Hinton broth supplemented with 0.9% NaCl, before passages) is reported as 1 µM (≈ 4.82 µg/mL). The “Minimum inhibitory concentration E.coli MDR 1057 14 days with VicBac [1-22]” value [1] was 2 µM, the IC50 [2] was 0.5 µM and the “MIC, E. coli CI 214” value (E. coli CI 214) was 8 µM (≈ 38.5 µg/mL). The “MIC, E. coli ML-35p” value (E. coli ML-35p) was 0.5 µM (≈ 2.41 µg/mL), the IC50 at 20 h (Cytotoxicity (MTT assay)) was about 100 µM and the “MIC, P. aeruginosa ATCC 27853” value (P. aeruginosa ATCC 27853) was 4 µM (≈ 19.3 µg/mL). The “MIC, P. aeruginosa PAO1” value (P. aeruginosa PAO1) was 8 µM (≈ 38.5 µg/mL), the “MIC, B. subtilis B-886” value (B. subtilis B-886) was 16 µM (≈ 77.1 µg/mL) and the “Minimum inhibitory concentration, E. coli strain ΔompF” value (E. coli BW25113 ΔompF; 0.9% NaCl: +) was 1 µM (≈ 4.82 µg/mL). The “Minimum inhibitory concentration, E. coli strain ΔompF” value (E. coli BW25113 ΔompF; 0.9% NaCl: −) was 1 µM (≈ 4.82 µg/mL), the “Minimum inhibitory concentration, E. coli strain ΔmdtM” value (E. coli BW25113 ΔmdtM; 0.9% NaCl: +) was 1 µM (≈ 4.82 µg/mL) and the “Minimum inhibitory concentration, E. coli strain ΔmdtM” value (E. coli BW25113 ΔmdtM; 0.9% NaCl: −) was 2 µM (≈ 9.64 µg/mL). The “increase in MIC against ΔsbmA strain versus BW25113” value (E. coli BW25113 ΔsbmA; Mueller–Hinton broth with 0.9% NaCl) was 2 fold, the “Minimum inhibitory concentration, E. coli strain ΔsbmA” value (E. coli BW25113 ΔsbmA; 0.9% NaCl: +) was 2 µM (≈ 9.64 µg/mL) and the “Minimum inhibitory concentration, E. coli strain ΔsbmA” value (E. coli BW25113 ΔsbmA; 0.9% NaCl: −) was 2 µM (≈ 9.64 µg/mL). The “Minimum inhibitory concentration, E. coli strain BW25113” value (E. coli BW25113) was 1 µM (≈ 4.82 µg/mL) and the “MIC values, in most cases, against panel of reference pathogens and clinical isolates” value [3] was 0.25 to 8 µM.
